Source: patent US10966426B2, “Herbicidal compositions comprising phenylpyrimidines” (BASF SE, priority 2016, dated 2021)

How the values were obtained:
Format in all cases: in vivo
Ambrosia elatior [1] = experiment: greenhouse post-emergence treatment, AMBEL; conditions: 20 DAT, AMBEL; for % activity: solo, WG 70%
Procedure, shortened: (§1)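 Mixtures formulated as 10% by weight emulsion concentrates, applied in water post-emergence to plants of 3–15 cm. Cool-season species held at 10-25° C., warm-season at 20-35° C.; rating 0 (no damage) to 100 (destruction).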

Avena fatua [2] = experiment: greenhouse post-emergence treatment, AVEFA; conditions: Avena fatua, 480 h, 20 DAT, AVEFA
Procedure, shortened: (§2)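 Pot trial in loamy sand with about 3.0% humus; plants sown in place or transplanted as seedlings a few days before treatment, kept at 10-25° C or 20-35° C by species, water as solvent. Damage scored 0 (none) to 100 (full destruction) over 2 to 4 weeks; combination expectation by Colby, E=X+Y−(X·Y/100).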

Brachiaria decumbens = experiment: greenhouse post-emergence treatment, BRADC; conditions: Urochloa decumbens, 480 h, 20 DAT, BRADC, metribuzin WG 70% solo 17.5 gai/ha
Procedure, shortened: as §1

Matricaria chamomilla = experiment: greenhouse post-emergence treatment, MATCH; conditions: Matricaria chamomilla, 480 h, 20 DAT, MATCH
Procedure, shortened: (§3)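 Scale 0–100 damage rating (100 = complete destruction of above-ground parts, 0 = normal growth), read 2 to 4 weeks after post-emergence application of aqueous spray liquor to plants 3–15 cm tall.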

Ambrosia elatior [3] = experiment: greenhouse pre-emergence treatment, AMBEL; conditions: Ambrosia artemisiifolia, 480 h, 20 DAT, AMBEL
Procedure, shortened: (§4)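 Damage rated on 0 to 100 scale (0 = normal growth, 100 = no emergence or total above-ground kill) after 2-4 weeks at species-dependent 10-25° C or 20-35° C. Seeds sown per species in loamy sand, ~3.0% humus, treated right after sowing with aqueous spray of single actives or 10% emulsion-concentrate mixtures, then hooded; additive expectation by Colby.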

Alopecurus myosuroides = experiment: greenhouse post-emergence treatment, ALOMY; conditions: Alopecurus myosuroides, 480 h, 20 DAT, ALOMY
Procedure, shortened: as §2

Bromus sterilis = experiment: greenhouse post-emergence treatment, BROST; conditions: Bromus sterilis, 480 h, solo, WG 70%, BROST, 20 DAT
Procedure, shortened: as §2

Setaria viridis = experiment: greenhouse post-emergence treatment, SETVI; conditions: Setaria viridis, 480 h, solo, WG 70%, SETVI, 17.5 gai/ha, 20 DAT
Procedure, shortened: as §2

Avena fatua [4] = experiment: greenhouse pre-emergence treatment, AVEFA; conditions: Avena fatua, 480 h, 20 DAT, AVEFA, metribuzin WG 70% solo 31.25 gai/ha
Procedure, shortened: as §4

Poa annua = experiment: greenhouse post-emergence treatment, POAAN; conditions: Poa annua, 480 h, 20 DAT, POAAN
Procedure, shortened: as §1

Polygonum convolvulus = experiment: greenhouse post-emergence treatment, POLCO; conditions: Fallopia convolvulus, 480 h, 20 DAT, POLCO
Procedure, shortened: as §3

Papaver rhoeas = experiment: greenhouse post-emergence treatment, PAPRH; conditions: Papaver rhoeas, 480 h, solo, WG 70%, PAPRH, 17.5 gai/ha, 20 DAT
Procedure, shortened: as §3

[5] = metribuzin WG 70% solo 17.5 gai/ha
[6] = metribuzin WG 70% solo 35 gai/ha
[7] = metribuzin WG 70% solo 70 gai/ha

Question: With `CSc1nnc(C(C)(C)C)c(=O)n1N` [metribuzin] as the compound, how does the inhibition at 17.5 g/ha (Ambrosia elatior [1]; Ambrosia artemisiifolia, 480 h, metribuzin WG 70% solo 17.5 gai/ha) read?
Answer: 0%

Question: And the inhibition at 35 g/ha (Ambrosia elatior [1]; Ambrosia artemisiifolia, 480 h, metribuzin WG 70% solo 35 gai/ha)?
Answer: 0%

Question: What about the inhibition at 70 g/ha (Ambrosia elatior [1]; Ambrosia artemisiifolia, 480 h, metribuzin WG 70% solo 70 gai/ha) of the same compound?
Answer: 0%

Question: And the inhibition at 140 g/ha (Ambrosia elatior [1]; Ambrosia artemisiifolia, 480 h, metribuzin WG 70% solo 140 gai/ha)?
Answer: 70%

Question: What about the “% activity” value (Ambrosia elatior [1]; 17.5 gai/ha) of the same compound?
Answer: 0%

Question: And the “% activity” value (Ambrosia elatior [1]; 35 gai/ha)?
Answer: 0%

Question: What about the “% activity” value (Ambrosia elatior [1]; 70 gai/ha) of the same compound?
Answer: 0%

Question: And the inhibition at 17.5 g/ha (Avena fatua [2]; [5])?
Answer: 5%

Question: And the inhibition at 35 g/ha (Avena fatua [2]; [6])?
Answer: 10%

Question: What about the inhibition at 70 g/ha (Avena fatua [2]; [7]) of the same compound?
Answer: 40%

Question: What about the pest or weed control at 17.5 g/ha (Avena fatua [2]; solo, WG 70%, 17.5 gai/ha) of the same compound?
Answer: 5%

Question: And the pest or weed control at 35 g/ha (Avena fatua [2]; solo, WG 70%, 35 gai/ha)?
Answer: 10%

Question: And the pest or weed control at 70 g/ha (Avena fatua [2]; solo, WG 70%, 70 gai/ha)?
Answer: 40%

Question: What about the inhibition at 17.5 g/ha (Brachiaria decumbens) of the same compound?
Answer: 50%

Question: What about the inhibition at 17.5 g/ha (Matricaria chamomilla; [5]) of the same compound?
Answer: 0%

Question: What about the inhibition at 35 g/ha (Matricaria chamomilla; [6]) of the same compound?
Answer: 25%

Question: What about the pest or weed control at 17.5 g/ha (Matricaria chamomilla; solo, WG 70%, 17.5 gai/ha) of the same compound?
Answer: 0%

Question: What about the pest or weed control at 35 g/ha (Matricaria chamomilla; solo, WG 70%, 35 gai/ha) of the same compound?
Answer: 25%

Question: And the percent weed control (herbicidal activity, 0-100 scale) at 250 g/ha (Ambrosia elatior [3]; metribuzin WG 70% solo 250 gai/ha)?
Answer: 60%

Question: What about the pest or weed control at 31.25 g/ha (Ambrosia elatior [3]; solo, WG 70%, 31.25 gai/ha) of the same compound?
Answer: 40%

Question: What about the pest or weed control at 62.5 g/ha (Ambrosia elatior [3]; solo, WG 70%, 62.5 gai/ha) of the same compound?
Answer: 40%

Question: What about the pest or weed control at 125 g/ha (Ambrosia elatior [3]; solo, WG 70%, 125 gai/ha) of the same compound?
Answer: 70%

Question: And the inhibition at 17.5 g/ha (Alopecurus myosuroides; [5])?
Answer: 0%

Question: What about the inhibition at 35 g/ha (Alopecurus myosuroides; metribuzin WG 70% solo 35 gai/ha, read-out: % activity) of the same compound?
Answer: 10%

Question: And the pest or weed control at 17.5 g/ha (Alopecurus myosuroides; solo, WG 70%, 17.5 gai/ha)?
Answer: 0%

Question: What about the pest or weed control at 35 g/ha (Alopecurus myosuroides; solo, WG 70%, 35 gai/ha) of the same compound?
Answer: 10%

Question: What about the pest or weed control at 17.5 g/ha (Bromus sterilis; 17.5 gai/ha) of the same compound?
Answer: 25%

Question: What about the pest or weed control at 35 g/ha (Bromus sterilis; 35 gai/ha) of the same compound?
Answer: 55%

Question: And the pest or weed control at 17.5 g/ha (Setaria viridis)?
Answer: 30%

Question: What about the inhibition at 31.25 g/ha (Avena fatua [4]) of the same compound?
Answer: 30%

Question: What about the inhibition at 17.5 g/ha (Poa annua; [5]) of the same compound?
Answer: 60%

Question: What about the inhibition at 35 g/ha (Poa annua; [6]) of the same compound?
Answer: 70%

Question: And the pest or weed control at 17.5 g/ha (Poa annua; solo, WG 70%, 17.5 gai/ha)?
Answer: 60%

Question: And the inhibition at 17.5 g/ha (Polygonum convolvulus; [5])?
Answer: 0%

Question: And the inhibition at 35 g/ha (Polygonum convolvulus; [6])?
Answer: 0%

Question: What about the inhibition at 70 g/ha (Polygonum convolvulus; [7]) of the same compound?
Answer: 60%

Question: And the inhibition at 140 g/ha (Polygonum convolvulus; metribuzin WG 70% solo 140 gai/ha)?
Answer: 70%

Question: And the pest or weed control at 17.5 g/ha (Papaver rhoeas)?
Answer: 60%
